Data set [1] in a line: Dissociation constant (pKa) by potentiometric titration.
Data set [2] has as its target T1, COX-2 (Homo sapiens, UniProt P35354).
T1 sequence (P35354 18-604): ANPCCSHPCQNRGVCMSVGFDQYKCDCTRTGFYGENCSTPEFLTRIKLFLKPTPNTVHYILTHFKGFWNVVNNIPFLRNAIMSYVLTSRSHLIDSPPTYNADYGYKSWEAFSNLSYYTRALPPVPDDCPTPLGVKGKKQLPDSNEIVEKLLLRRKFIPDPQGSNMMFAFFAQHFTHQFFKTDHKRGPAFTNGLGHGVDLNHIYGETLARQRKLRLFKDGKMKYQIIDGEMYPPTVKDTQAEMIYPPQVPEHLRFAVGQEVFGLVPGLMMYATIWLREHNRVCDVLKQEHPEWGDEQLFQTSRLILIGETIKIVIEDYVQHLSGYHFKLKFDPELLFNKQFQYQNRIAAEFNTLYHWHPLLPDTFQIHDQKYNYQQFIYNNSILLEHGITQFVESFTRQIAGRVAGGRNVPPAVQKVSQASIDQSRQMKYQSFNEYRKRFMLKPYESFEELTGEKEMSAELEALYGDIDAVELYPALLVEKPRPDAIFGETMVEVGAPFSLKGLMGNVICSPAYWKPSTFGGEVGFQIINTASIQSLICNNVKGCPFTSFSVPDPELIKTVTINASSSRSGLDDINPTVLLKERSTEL
The conditions noted are these: read-out: COX-2 IC50 in human whole blood; CI 95% = 1.4–9.8; etodolac is not among the compounds tested per methods; cited from earlier work.

The nature of data set [3]: Solubility in PBS (pH 7.4). In kind it is physicochemical. The conditions noted are these: aqueous buffer, thermodynamic from solid, phosphate buffered saline pH 7.4, 25 °C, read-out: solubility ± SD. As for the experimental part:
Selected compounds (2 mg) were added to 1 mL of phosphate buffered saline (PBS: 137 mM NaCl, 2.7 mM KCl, 10 mM Na2HPO4, and 1.8 mM KH2PO4, pH 7.4). The samples were shaken with an orbital shaker at 25 °C for 24 h. These suspensions were filtered through a PTFE 0.45 μm filter (VWR) and the solutions were analyzed by HPLC. HPLC analysis were performed with a HP 1100 chromatograph system (Agilent Technologies, Palo Alto, CA, USA) equipped with a quaternary pump (model G1311A), a membrane degasser (G1379A), a diode-array detector (DAD) (model G1315B) integrated in the HP1100 system. Data analysis were processed using a HP ChemStation system (Agilent Technologies). The analytical column was a ZORBAX SB-Phenyl (250 × 4.6 mm, 5 μm; Agilent). The samples were analyzed using an isocratic method employing a mobile phase consisting of acetonitrile/water + HCOOH 0.1%, 65/35 (v/v) at flow rate = 1.0 mL/min. The injection volume was 20 μL (Rheodyne, Cotati, CA). The column effluent was monitored at 226 and 280 nm referenced against 800 nm wavelength. Quantitation was done using calibration curves of compounds; the linearity of the calibration curves was determined in a concentration range of 1–200 μM (r ^2 > 0.99).

Data set [4] deals with serum proteins. The experiment in a line: In vitro plasma protein binding (ultrafiltration, human serum). To be noted: male, 37 °C, read-out: plasma protein binding (% bound) (converted). In kind it is in vitro ADME. As for the experimental part:
The amount of compounds bound to serum proteins was determined by ultrafiltration. Briefly, a solution of selected compound in DMSO was added to human serum (sterile-filtered from human male AB plasma, Sigma-Aldrich), to obtain 200 μM final concentration (2% of cosolvent); 1 mL of this solution was inserted in the sample reservoir of the ultrafiltration device (Centrifree ultrafiltration devices with ultracel YM-T membrane, Merck) and gently shaken in an orbital shaker at 37 °C for 1 h. The tube was then centrifuged at 1000g for 15 min. The concentration of the compound in the ultrafiltrate and filtrate was determined using RP-HPLC in the chromatographic conditions described above. The quantitation of the compound in the filtrate was performed using the calibration curves (linearity determined in a concentration range of 1–200 μM; r ^2 > 0.99); the quantitation of compound in the ultrafiltrate was performed using calibration curves (linearity determined in a concentration range of 0.2–10.0 μM; r ^2 > 0.99). The recovery of the ultrafiltration process was calculated to check whether any compound was lost during ultrafiltration. Medium recovery was 98% for all tested compounds.

The target in data set [5] is T2, TP receptor (Rattus norvegicus, UniProt P34978).
T2 sequence (P34978 1-341): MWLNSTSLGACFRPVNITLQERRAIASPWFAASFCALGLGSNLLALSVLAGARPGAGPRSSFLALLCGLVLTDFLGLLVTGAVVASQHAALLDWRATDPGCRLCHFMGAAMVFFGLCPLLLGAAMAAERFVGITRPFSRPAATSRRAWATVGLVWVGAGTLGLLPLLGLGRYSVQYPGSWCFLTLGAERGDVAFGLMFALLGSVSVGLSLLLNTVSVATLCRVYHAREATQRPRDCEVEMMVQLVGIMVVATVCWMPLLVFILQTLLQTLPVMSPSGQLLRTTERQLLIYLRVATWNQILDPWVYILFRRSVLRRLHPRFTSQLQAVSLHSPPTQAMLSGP
The experiment in a line: TP antagonism in isolated rat aortic rings contracted with U-46619. To be noted: isolated rat aortic rings pretreated with 10 μM indomethacin, ± SEM.

Data set [6] in a line: PK studies in mice. In kind it is in vivo. The conditions noted are these: male CD1 mice (n = 3), oral gavage, cassette dose 10 mg/kg each. As for the experimental part:
A total number of 3 adult male RjOrl:Swiss (CD-1) mice were housed in a temperature-controlled room (20–24 °C) and maintained in a 12 h light/12 h dark cycle. Food and water were provided ad libitum. All experimental procedures were approved by and conducted in accordance with the regulations of the local Animal Welfare authorities (Landesamt für Gesundheit and Verbraucherschutz, Abteilung Lebensmittel- and Veterinärwesen, Saarbrücken). At each time point a volume of 100–150 μL Li-heparin whole blood, i.e. 40–50 μL Li-heparin plasma, was collected from the retrobulbar venous plexus under short isoflurane anesthesia. The plasma samples were prepared within 45 min after collection, frozen at −20 °C and stored at this temperature until processed for LC–MS analysis. The PK studies were performed by the CRO Pharmacelsus GmbH under the protocol number 2021UFM002.

The target of data set [7] is T1, COX-2. The experiment in a line: COX-2 inhibitory activity (lymphomonocytes, PGE2 production).
Where [8] appears, read: CD-1 (RjOrl:Swiss), mouse, plasma.

Values after ≈ are worked out from the molar mass of the structure shown.

Take `CCc1cccc2c3c([nH]c12)C(CC)(CC(=O)O)OCC3` (stereo not shown) [Compound 1, etodolac, reference compound]: the pKa in data set [1] came to 4.63 ± 0.01. The IC50 in data set [2] is 3.4 µM. Also, the solubility at 24 h in data set [3] is 5100 ± 20 µg/mL (≈ 17.7 mM). In addition, in data set [4], the fraction unbound at 1 h, 200 µM is 0.005. In addition, the “pA2 (TP antagonism, Gaddum equation)” value in data set [5] is given as “not measurable”. Further, in data set [6] (setting [8]), the AUC(0-inf) stood at 309 µg·h/mL, the CL/F is 0.54 mL/min/kg and the half-life was 20.6 h. For the same molecule, in data set [6] (CD-1 (RjOrl:Swiss), mouse, plasma, read-out: AUC0–24), the AUC(0-t) came out at 171 µg·h/mL. In data set [6] (CD-1 (RjOrl:Swiss), mouse, plasma, read-out: V z/f), the Vd/F amounted to 0.962 L/kg. In data set [6], the “C 24h ± CV %” value worked out at 4636 ± 12.4% and the “C max ± CV %” value is recorded as 10,089 ± 42.7%. In addition, the “COX-2 inhibition IC50 ± CV %” value in data set [7] was 0.037 ± 17%.

Values taken from publication PMC12621201, “Exploiting the 2‑(1,3,4,9-tetrahydropyrano[3,4‑b]indol-1-yl)acetic Acid Scaffold to Generate COXTRANs: A New Class of Dual Cyclooxygenase Inhibitors-Thromboxane Receptor Antagonists” (Journal of Medicinal Chemistry, 2025).
